Reference: ChEMBL document CHEMBL1130513, “New hepatoprotective saponins, bupleurosides III, VI, IX, and XIII, from Chinese Bupleuri Radix: Structure-requirements for the cytoprotective activity in primary cultured rat hepatocytes” (1997)

Key:
Assay type in all cases: functional
Rattus norvegicus [1] = species on record: Rattus norvegicus; assay: In vitro inhibitory effect on D-Galactosamine induced cytotoxicity in primary cultured rat hepatocytes at 0.3 ug/mL; details: Hepatocyte
Rattus norvegicus [2] = species on record: Rattus norvegicus; assay: In vitro inhibitory effect on D-Galactosamine induced cytotoxicity in primary cultured rat hepatocytes at 3 ug/mL; details: Hepatocyte
Rattus norvegicus [3] = species on record: Rattus norvegicus; assay: In vitro inhibitory effect on D-Galactosamine induced cytotoxicity in primary cultured rat hepatocytes at 10 ug/mL; details: Hepatocyte
Rattus norvegicus [4] = species on record: Rattus norvegicus; assay: In vitro inhibitory effect on D-Galactosamine induced cytotoxicity in primary cultured rat hepatocytes at 1 ug/mL; details: Hepatocyte
Mus musculus [5] = assay: Inhibitory effect on D-GalN/LPS (injected i.p. dose of 350 mg/kg and 10 ug/kg) induced hepatic injury in mice at 10 mg/kg, ip
Rattus norvegicus [6] = species on record: Rattus norvegicus; assay: In vitro inhibitory effect on D-Galactosamine induced cytotoxicity in primary cultured rat hepatocytes at 30 ug/mL; details: Hepatocyte
Mus musculus [7] = assay: Inhibitory effect on D-GalN/LPS (injected i.p. dose of 350 mg/kg and 10 ug/kg) induced hepatic injury in mice at 20 mg/kg, ip

Compound | inhibition at 0.3 µg/mL (Rattus norvegicus [1]) | inhibition at 3 µg/mL (Rattus norvegicus [2]) | inhibition at 10 µg/mL (Rattus norvegicus [3]) | inhibition at 1 µg/mL (Rattus norvegicus [4]) | s-GOT level (Mus musculus [5]) | s-GPT level (Mus musculus [5]) | inhibition at 30 µg/mL (Rattus norvegicus [6]) | s-GOT level (Mus musculus [7]) | s-GPT level (Mus musculus [7])
C[C@H]1O[C@@H](O[C@H]2CC[C@@]3(C)C(CC[C@]4(C)C3[C@H](O)C=C3C5CC(C)(C)CC[C@]5(CO)[C@@H](O)C[C@]34C)[C@]2(C)CO)[C@H](O)[C@@H](O[C@@H]2O[C@H](CO)[C@@H](O)[C@H](O)[C@H]2O)[C@H]1O (stereo not given in full) | 6.8% | 35.6% | 43.1% | 16.7% | 1261 Karmen units | 1483 Karmen units | 46.5% | – | –
C[C@H]1O[C@@H](O[C@H]2CC[C@@]3(C)C(CC[C@]4(C)C3C(=O)C=C3C5CC(C)(C)CC[C@]5(CO)[C@@H](O)C[C@]34C)[C@]2(C)CO)[C@H](O)[C@@H](O[C@@H]2O[C@H](CO)[C@@H](O)[C@H](O)[C@H]2O)[C@H]1O (stereo not given in full) | 5.5% | 44.5% | 72.8% | 16.9% | 7211 Karmen units | 7887 Karmen units | 90.9% | 1404 Karmen units | 1530 Karmen units
C[C@H]1O[C@@H](O[C@H]2CC[C@@]3(C)C(CC[C@]4(C)C3[C@H](O)CC3C5=CC(C)(C)CC[C@]5(CO)[C@@H](O)C[C@]34C)[C@]2(C)CO)[C@H](O)[C@@H](O[C@@H]2O[C@H](CO)[C@@H](O)[C@H](O)[C@H]2O)[C@H]1O (stereo not given in full) | 15.8% | 59.4% | 69.5% | 39.7% | 1209 Karmen units | 1265 Karmen units | 64.7% | – | –
C[C@]12CCC(=O)C=C1CCC1[C@@H]2[C@@H](O)C[C@@]2(C)[C@H]1CC[C@]2(O)C(=O)CO (single isomer, unassigned) [HYDROCORTISONE] | – | – | – | – | – | – | – | 331 Karmen units | 202 Karmen units
